Laboratory results published in patent US6977262B2, “Dihydropyrazolopyridine compounds and pharmaceutical use thereof” (Mitsubishi Pharma Corporation, priority 2001, dated 2005).

| SMILES | melting point |
| --- | --- |
| CCCC1=C(C#N)C(c2ccccc2Cl)c2c(n[nH]c2C2CCCC2)N1 (stereo not shown) [Example 314, 4-(2-Chlorophenyl)-5-cyano-3-cyclopentyl-4,7-dihydro-6-propyl-2H-pyrazolo[3,4-b]pyridine] | > 270 °C |
| N#CC1=C(C2CCNCC2)Nc2n[nH]cc2C1c1ccccc1Cl (stereo not shown) [Example 1055, 4-(2-Chlorophenyl)-5-cyano-4,7-dihydro-6-(piperidin-4-yl)-2H-pyrazolo[3,4-b]pyridine] | 221 °C |
| N#CC1=C(C2CCC2)Nc2n[nH]cc2C1c1ccccc1Cl (stereo not shown) [Example 313, 4-(2-Chlorophenyl)-5-cyano-6-cyclobutyl-4,7-dihydro-2H-pyrazolo[3,4-b]pyridine] | 188 °C |
| CCC1=C(C#N)C(c2ccccc2[N+](=O)[O-])c2c[nH]nc2N1 (stereo not shown) [Example 192, 5-Cyano-6-ethyl-4,7-dihydro-4-(2-nitrophenyl)-2H-pyrazolo[3,4-b]pyridine] | 228 to 230 °C (dec.) |
| CCCC1=C(C(=O)OCC)C(c2ccccc2[S+](C)[O-])c2c[nH]nc2N1 (stereo not shown) [Example 40, Ethyl 4,7-dihydro-4-(2-methylsulfinylphenyl)-6-propyl-2H-pyrazolo[3,4-b]pyridine-5-carboxylate] | 216 °C |
| N#CC1=C(CO)Nc2n[nH]cc2C1c1ccccc1Cl (stereo not shown) [Example 252, 4-(2-Chlorophenyl)-5-cyano-4,7-dihydro-6-hydroxymethyl-2H-pyrazolo[3,4-b]pyridine] | 205 to 210 °C (dec.) |
| CCCCC1=C(C(=O)OCC)C(c2ccccc2OC)c2c[nH]nc2N1 (stereo not shown) [Example 90, Ethyl 6-butyl-4,7-dihydro-4-(2-methoxyphenyl)-2H-pyrazolo[3,4-b]pyridine-5-carboxylate] | 190 °C |
| CCCC1=C(C#N)C(c2cccc(N3CCOCC3)c2)c2c[nH]nc2N1 (stereo not shown) [Example 364, 5-Cyano-4,7-dihydro-4-(3-(morpholin-4-yl)phenyl)-6-propyl-2H-pyrazolo[3,4-b]pyridine] | 196 to 200 °C |
| CCCC1=C(C(=O)OCC)C(c2ccccc2C#N)c2c[nH]nc2N1 (stereo not shown) [Example 42, Ethyl 4-(2-cyanophenyl)-4,7-dihydro-6-propyl-2H-pyrazolo[3,4-b]pyridine-5-carboxylate] | 211 °C |
| CCC1=C(C#N)C(c2ccccc2Cl)c2c[nH]nc2N1 (stereo not shown) [Example 197, 4-(2-Chlorophenyl)-5-cyano-6-ethyl-4,7-dihydro-2H-pyrazolo[3,4-b]pyridine] | > 300 °C |
| CC(C)(C)OC(=O)N1CCC(C2=C(C#N)C(c3ccccc3Cl)c3c[nH]nc3N2)CC1 (stereo not shown) [Example 1054, 6-(1-t-Butoxycarbonylpiperidin-4-yl)-4-(2-chlorophenyl)-5-cyano-4,7-dihydro-2H-pyrazolo[3,4-b]pyridine] | > 280 °C |
| CCCC1=C(C(=O)OCC)C(c2ccccc2CC)c2cn[nH]c2N1 (stereo not shown) [Example 100, Ethyl 4-(2-ethylphenyl)-4,7-dihydro-6-propyl-1H-pyrazolo[3,4-b]pyridine-5-carboxylate] | 186 °C |
| CCOC(=O)C1=C(C(F)(F)F)Nc2n[nH]cc2C1c1ccccc1OC (stereo not shown) [Example 15, Ethyl 4,7-dihydro-4-(2-methoxyphenyl)-6-trifluoromethyl-2H-pyrazolo[3,4-b]pyridine-5-carboxylate] | 144 to 146 °C |
| CCCC1=C(C#N)C(c2cccnc2)c2c[nH]nc2N1 (stereo not shown) [Example 327, 5-Cyano-4,7-dihydro-6-propyl-4-(pyridin-3-yl)-2H-pyrazolo[3,4-b]pyridine] | 201 °C |
| N#CC1=C(c2cccs2)Nc2n[nH]cc2C1c1cccc2ccccc12 (stereo not shown) [Example 246, 5-Cyano-4,7-dihydro-4-(naphthalen-1-yl)-6-(thiophen-2-yl)-2H-pyrazolo[3,4-b]pyridine] | 214 °C |
| CC1=C(C(=O)N(C)C)C(c2ccccc2Cl)c2c[nH]nc2N1 (stereo not shown) [Example 8, 4-(2-Chlorophenyl)-5-dimethylaminocarbonyl-4,7-dihydro-6-methyl-2H-pyrazolo[3,4-b]pyridine] | 229 °C |

Other lines, results leading:

| melting point | SMILES |
| --- | --- |
| 224 °C | CC(C)C1=C(C#N)C(c2ccccc2[N+](=O)[O-])c2c[nH]nc2N1 (stereo not shown) [Example 262, 5-Cyano-4,7-dihydro-6-isopropyl-4-(2-nitrophenyl)-2H-pyrazolo[3,4-b]pyridine] |
| 278 °C | N#CC1=C(C2CCC2)Nc2n[nH]cc2C1c1cccc(C#N)c1Br (stereo not shown) [Example 321, 4-(2-Bromo-3-cyanophenyl)-5-cyano-6-cyclobutyl-4,7-dihydro-2H-pyrazolo[3,4-b]pyridine] |
| 141 to 143 °C | CCCC1=C(C(=O)OCC)C(c2ccsc2)c2c[nH]nc2N1.O=C(O)/C=C\C(=O)O (stereo not shown) [Example 65, Ethyl 4,7-dihydro-6-propyl-4-(thiophen-3-yl)-2H-pyrazolo[3,4-b]pyridine-5-carboxylate maleate] |
| 269 °C | CCCC1=C(C#N)C(c2ccccc2Cl)c2c(n[nH]c2CC)N1 (stereo not shown) [Example 309, 4-(2-Chlorophenyl)-5-cyano-4,7-dihydro-3-ethyl-6-propyl-2H-pyrazolo[3,4-b]pyridine] |
| 176 to 178 °C | CCOC(=O)C1=C(C(F)(F)F)Nc2n[nH]cc2C1c1ccc(Cl)cc1 (stereo not shown) [Example 18, Ethyl 4-(4-chlorophenyl)-4,7-dihydro-6-trifluoromethyl-2H-pyrazolo[3,4-b]pyridine-5-carboxylate] |
| 162 °C | N#CC1=C(c2ccccc2)Nc2n[nH]cc2C1c1cccc(Cl)c1Cl (stereo not shown) [Example 145, 5-Cyano-4-(2,3-dichlorophenyl)-4,7-dihydro-6-phenyl-2H-pyrazolo[3,4-b]pyridine] |
| 119 to 120 °C | CCOC(=O)C1=C(C(F)(F)F)Nc2n[nH]cc2C1c1ccccc1F (stereo not shown) [Example 13, Ethyl 4-(2-fluorophenyl)-4,7-dihydro-6-trifluoromethyl-2H-pyrazolo[3,4-b]pyridine-5-carboxylate] |
| 198 °C | COc1cccc(C2=C(C#N)C(c3cccc4nonc34)c3c[nH]nc3N2)c1 (stereo not shown) [Example 160, 4-(2,1,3-Benzoxadiazol-4-yl)-5-cyano-4,7-dihydro-6-(3-methoxyphenyl)-2H-pyrazolo[3,4-b]pyridine] |
| 234 °C | CC1=C(C(=O)OCc2ccccc2)C(c2ccccc2Cl)c2c[nH]nc2N1 (stereo not shown) [Example 7, Benzyl 4-(2-chlorophenyl)-4,7-dihydro-6-methyl-2H-pyrazolo[3,4-b]pyridine-5-carboxylate] |
| 198 to 200 °C | CCCC1=C(C(=O)OCC)C(c2cccc(C)c2Cl)c2c[nH]nc2N1 (stereo not shown) [Example 178, Ethyl 4-(2-chloro-3-methylphenyl)-4,7-dihydro-6-propyl-2H-pyrazolo[3,4-b]pyridine-5-carboxylate] |
| 163 °C | N#CC1=C(C2CCCCC2)Nc2n[nH]cc2C1c1ccccc1Cl (stereo not shown) [Example 306, 4-(2-Chlorophenyl)-5-cyano-6-cyclohexyl-4,7-dihydro-2H-pyrazolo[3,4-b]pyridine] |
| 237 °C | CC(=O)N1CC=C(C2=C(C#N)C(c3cccc4nonc34)c3c[nH]nc3N2)CC1 (stereo not shown) [Example 1027, 6-(1-Acetyl-1,2,3,6-tetrahydropyridin-4-yl)-4-(2,1,3-benzoxadiazol-4-yl)-5-cyano-4,7-dihydro-2H-pyrazolo[3,4-b]-pyridine] |
